Where “and” joins values, the source holds several entries; their conditions need not be identical. Identical values can stand only once.
Target: T1, recombinant human AMPK complex, containing α2β1γ2 (Homo sapiens, UniProt P54646+Q9Y478)
T1 construct: hsAMPKα2-552-His, hsAMPKβ1-2-270 and hsAMPKγ-2-569 respectively; hsAMPKβ1-2-270; hsAMPKγ-2-569; His (C); made in house; host or cells: Spodoptera frugiperda Sf21 (baculovirus)
Experiment: AMPK in vitro activation assay (HTRF)
Type: biochemical
Conditions: for EC50: HTRF, recombinant human α2β1γ2 AMPK, 200 μM ATP, biotinylated ACC-CREBp peptide, repeat determinations on separate lines; for Emax: potentiation of AMPK activity as percent over the basal signal (without compound)
Outline: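 HTRF phosphorylation read-out (Eu-cryptate anti-pS133-CREB, streptavidin-XL665) after a 45 min, 37° C kinase step. This step was initiated by a solution with 200 μM ATP and 2 or 0.08 μM biotinylated ACC-CREBp peptide. Beforehand, compound sat 30 min at room temperature with baculovirus/Sf21 α2β1γ2 in pH 7.0 HEPES buffer; EC50 derived from activation over basal.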

T1 sequence (P54646 2-552): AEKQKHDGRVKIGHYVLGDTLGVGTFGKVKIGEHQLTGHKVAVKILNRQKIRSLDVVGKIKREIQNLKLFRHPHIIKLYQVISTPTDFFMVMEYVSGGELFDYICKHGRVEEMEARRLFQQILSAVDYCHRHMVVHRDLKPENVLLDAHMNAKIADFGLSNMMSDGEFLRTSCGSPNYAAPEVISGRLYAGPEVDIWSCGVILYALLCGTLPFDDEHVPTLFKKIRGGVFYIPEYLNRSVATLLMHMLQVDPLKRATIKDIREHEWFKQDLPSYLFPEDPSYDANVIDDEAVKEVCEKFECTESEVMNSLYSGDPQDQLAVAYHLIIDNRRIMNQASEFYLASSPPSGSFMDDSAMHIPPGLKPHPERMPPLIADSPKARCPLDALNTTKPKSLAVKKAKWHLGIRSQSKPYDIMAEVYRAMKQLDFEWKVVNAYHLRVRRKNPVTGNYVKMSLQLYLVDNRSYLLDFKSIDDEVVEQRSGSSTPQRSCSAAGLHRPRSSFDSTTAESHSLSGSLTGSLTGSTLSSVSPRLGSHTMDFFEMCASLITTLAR
T1 sequence (Q9Y478 2-270): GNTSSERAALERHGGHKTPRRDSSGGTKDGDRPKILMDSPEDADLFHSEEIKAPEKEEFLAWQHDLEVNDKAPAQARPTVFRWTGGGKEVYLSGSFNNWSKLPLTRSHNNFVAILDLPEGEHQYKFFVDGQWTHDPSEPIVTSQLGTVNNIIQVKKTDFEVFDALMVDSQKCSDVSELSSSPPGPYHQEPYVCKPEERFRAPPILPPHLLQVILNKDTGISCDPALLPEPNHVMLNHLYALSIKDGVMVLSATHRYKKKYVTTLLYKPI
T1 sequence (Q9UGJ0 2-569 partner limits assumed): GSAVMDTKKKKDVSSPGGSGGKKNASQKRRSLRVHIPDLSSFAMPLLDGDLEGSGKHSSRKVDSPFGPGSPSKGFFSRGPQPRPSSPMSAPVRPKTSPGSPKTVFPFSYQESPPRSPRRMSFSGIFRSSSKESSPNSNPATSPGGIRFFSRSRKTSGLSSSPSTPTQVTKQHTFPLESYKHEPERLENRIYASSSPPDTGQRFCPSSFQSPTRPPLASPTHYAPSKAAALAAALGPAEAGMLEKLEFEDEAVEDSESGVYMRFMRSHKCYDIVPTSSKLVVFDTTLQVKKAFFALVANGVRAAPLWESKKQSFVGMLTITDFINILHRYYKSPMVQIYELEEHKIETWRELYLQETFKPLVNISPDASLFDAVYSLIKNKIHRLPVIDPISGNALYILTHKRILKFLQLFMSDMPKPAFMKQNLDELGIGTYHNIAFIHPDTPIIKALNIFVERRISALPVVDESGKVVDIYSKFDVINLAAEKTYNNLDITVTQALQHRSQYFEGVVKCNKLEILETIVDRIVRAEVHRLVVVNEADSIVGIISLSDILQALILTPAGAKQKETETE

SMILES	EC50	Emax
COc1cc(C(O)=C2C(=O)Nc3cc(Cl)c(-c4ccc(C(CO)CO)cc4)cc32)on1 [Compound 121, 6-chloro-5-[4-[2-hydroxy-1-(hydroxymethyl)ethyl]phenyl]-3-[hydroxy-(3-methoxyisoxazol-5-yl)methylene]indolin-2-one]	4 nM	172%
O=C1Nc2cc(Cl)c(-c3ccc(N4CCOCC4)cc3)cc2C1=C(O)c1ccc(OC(F)(F)F)c(F)c1 [Compound 95, 6-chloro-3-[[3-fluoro-4-(trifluoromethoxy)phenyl]-hydroxy-methylene]-5-(4-morpholinophenyl)indolin-2-one]	396 nM	159%
Cc1cc(C(O)=C2C(=O)Nc3cc(Cl)c(-c4ccc(-c5ccco5)cc4)cc32)on1 [Compound 65, 6-Chloro-5-(4-furan-2-yl-phenyl)-3-[1-hydroxy-1-(3-methyl-isoxazol-5-yl)methylidene]-1,3-dihydro-indol-2-one]	120 nM	113%
COc1cc(C(O)=C2C(=O)Nc3cc(F)c(-c4ccc(C5(CO)CC5)cc4)c(F)c32)on1 [Compound 83, 4,6-difluoro-3-[hydroxy-(3-methoxyisoxazol-5-yl)methylene]-5-[4-[1-(hydroxymethyl)cyclopropyl]phenyl]indolin-2-one]	0.1 nM	–
COc1cc(C(O)=C2C(=O)Nc3cc(Cl)c(-c4ccc(N(C)C)cc4F)cc32)on1 [Compound 148, 6-chloro-5-[4-(dimethylamino)-2-fluoro-phenyl]-3-[hydroxy-(3-methoxyisoxazol-5-yl)methylene]indolin-2-one]	1 nM	158%

More lines, now with the values ahead:

EC50	Emax	SMILES
1 nM	175%	COc1cc(C(O)=C2C(=O)Nc3cc(Cl)c(-c4ccc(C5(CO)CC5)cc4F)cc32)on1 [Compound 111, 6-chloro-5-[2-fluoro-4-[1-(hydroxymethyl)cyclopropyl]phenyl]-3-[hydroxy-(3-methoxyisoxazol-5-yl)methylene]indolin-2-one]
2 nM	198%	COc1cnccc1C(O)=C1C(=O)Nc2cc(Cl)c(-c3ccc(C4(CO)CC4)cc3)cc21 [Compound 175, 6-chloro-3-[hydroxy-(3-methoxy-4-pyridyl)methylene]-5-[4-[1-(hydroxymethyl)cyclopropyl]phenyl]indolin-2-one]
14 nM	150%	O=C1Nc2cc(Cl)c(-c3ccc(N4CCOCC4)cc3)cc2C1=C(O)c1cccc(N2CCOCC2)c1 [Compound 94, 6-chloro-3-[hydroxy-(3-morpholinophenyl)methylene]-5-(4-morpholinophenyl)indolin-2-one]
11 nM	129%	COc1cccc(-c2ccc(-c3cc4c(cc3Cl)NC(=O)C4=C(O)c3cnc(C)s3)cc2)c1O [Compound 51, 6-Chloro-5-(2′-hydroxy-3′-methoxy-biphenyl-4-yl)-3-[1-hydroxy-1-(2-methyl-thiazol-5-yl)-methylidene]-1,3-dihydro-indol-2-one]
33 nM and 86 nM	–	COCCCOc1ccc(-c2cc3c(cc2Cl)NC(=O)C3=C(O)c2cc(OC)no2)cc1 [Compound 131, 6-chloro-3-[hydroxy-(3-methoxyisoxazol-5-yl)methylene]-5-[4-(3-methoxypropoxy)phenyl]indolin-2-one]
98 nM	254%	O=C1Nc2cc(Cl)c(-c3ccc(N4CCOCC4)cc3)cc2C1=C(O)c1cc(C2CC2)on1 [Compound 62, 6-Chloro-3-[1-(5-cyclopropyl-isoxazol-3-yl)-1-hydroxy-methylidene]-5-(4-morpholin-4-yl-phenyl)-1,3-dihydro-indol-2-one]
0.7 nM	256%	COc1cc(C(O)=C2C(=O)Nc3cc(Cl)c(-c4ccc5c(ccn5C)c4)cc32)on1 [Compound 154, 6-chloro-3-[hydroxy-(3-methoxyisoxazol-5-yl)methylene]-5-(1-methylindol-5-yl)indolin-2-one]

Source: patent US10077237B2 (Sanofi, priority 2013, dated 2018)
